What was measured:
[1] = test system: Ba/F3 cells (IL-3 dependent murine pro-B cell line); experiment: Proliferation assay (MTT), parental Ba/F3 cells; assay type: cell-based; conditions: Mus musculus, 48 h, drug concentrations 0.005-10 μM, read-out: BaF3
Method: Interleukin-3 (IL-3) dependent murine pro-B cell line, Ba/F3, and murine myeloid precursor cell line, 32D, were maintained in RPMI-1640 medium supplemented with L-Glutamine, 10% FBS and 10 U/ml recombinant murine IL-3 (Roche). Mo7e human megakarioblastic cell line was grown in RPMI-1640 medium supplemented with L-Glutamine, 20% FBS and 5 ng/ml recombinant human granulocyte macrophage cell stimulating factor (GM-CSF) (R&D Systems) or 200 ng/ml stem cell factor (SCF) (Biosource).
(§1) Cells (0.3-0.6×10^6/ml) were plated in duplicate or triplicate in 96-well plates containing increasing drug concentrations (0.005-10 μM). After incubation at 37° C. in 5% CO2 for 48 h, the effect of the compounds on cell viability was determined by MTT (Promega) colorimetric dye reduction method. Inhibition of cell proliferation was calculated as a percentage of growth of DMSO treated cells, and IC50 values were determined with Microsoft Excel XLfit3.

[2] = target: Bcr-abl (Ba/F3.p210 cells) (Homo sapiens, UniProt P00519); experiment: Proliferation assay (MTT), wild type Bcr-abl expressing Ba/F3 cells; assay type: cell-based, murine; conditions: 48 h, drug concentrations 0.005-10 μM
From the text: (§2) Wild type Bcr-abl expressing 32D (32D.p210) and Ba/F3 (Ba/F3.p210) cells, and mutant Bcr-abl expressing cell lines Ba/F3.p210^G250E, Ba/F3.p210^E255V, Ba/F3.p210^T315I, Ba/F3.p210^F317L and Ba/F3.p210^M351T, as well as Ba/F3 cells transformed with Flt-3-ITD kinase. Additional assays included Ba/F3 cells expressing the fusion protein kinases TEL-PDGFRβ, TEL-JAK1, NPM-ALK, TEL-cKit, Tel-Bmx, Tel-FGR3, Tel-Lck and Ba/F3.TPR-met cells. All the above cell lines were maintained in RPMI-1640 medium with L-Glutamine, 10% FBS and 1 mg/ml geneticin (Gibco).
as §1

[3] = target: Bcr-abl T315I (Ba/F3.p210^T315I cells) (Homo sapiens, UniProt P00519, T315I, cells depend on it); experiment: Proliferation assay (MTT), T315I mutant Bcr-abl expressing Ba/F3 cells; assay type: cell-based, murine; conditions: 48 h, drug concentrations 0.005-10 μM
From the text: as §2, §1

| Compound | IC50 [1] [µM] | IC50 [2] [µM] | IC50 [3] [µM] |
| --- | --- | --- | --- |
| Cn1ncc2c(Nc3ccc(OC(F)(F)F)cc3)ncnc21 | > 10 | > 10 | – |
| COC(=O)c1cc2c(Nc3ccc(OC(F)(F)F)cc3)ncnc2s1 | > 10 | – | > 10 |
| O=C(O)c1cc2c(Nc3ccc(OC(F)(F)F)cc3)ncnc2s1 | > 10 | – | > 10 |
| CN(C)C1CCN(C(=O)c2cc3c(Nc4ccc(OC(F)(F)F)cc4)ncnc3s2)C1 (centres unmarked) | > 10 | – | > 10 |
| O=C(NC1CCN(Cc2ccccc2)C1)c1cc2c(Nc3ccc(OC(F)(F)F)cc3)ncnc2s1 (centres unmarked) | 0.926 | – | 0.621 |
| O=C(c1cc2c(Nc3ccc(OC(F)(F)F)cc3)ncnc2s1)N1CCC[C@H]1CO | 3.66 | – | 1.21 |
| O=C(c1cc2c(Nc3ccc(OC(F)(F)F)cc3)ncnc2s1)N1CCN(c2cccc(C(F)(F)F)c2)CC1 | 4.55 | – | 1.92 |
| CN1CCN(C(=O)c2cc3c(Nc4ccc(OC(F)(F)F)cc4)ncnc3s2)CC1 | 2.69 | – | 1.25 |
| O=C(c1cc2c(Nc3ccc(OC(F)(F)F)cc3)ncnc2s1)N1CCC(O)CC1 | > 10 | – | > 10 |
| FC(F)(F)Oc1ccc(Nc2ncnc3sccc23)cc1 | > 10 | – | > 10 |
| Cc1cc2c(Nc3ccc(OC(F)(F)F)cc3)ncnc2s1 | > 10 | – | > 10 |
| NS(=O)(=O)c1ccc(-c2cc(Nc3ccc(OC(F)(F)F)cc3)ncn2)cc1 | > 10 | – | 1.05 |
| CNS(=O)(=O)c1ccc(-c2ncnc(Nc3ccc(OC(F)(F)F)cc3)c2C)cc1 | 2.5 | – | 2.13 |
| CCNS(=O)(=O)c1ccc(-c2cc(Nc3ccc(OC(F)(F)F)cc3)ncn2)cc1 | > 10 | – | 1.85 |
| O=S(=O)(NCCO)c1ccc(-c2cc(Nc3ccc(OC(F)(F)F)cc3)ncn2)cc1 | > 10 | – | 1.45 |
| CS(=O)(=O)c1ccc(-c2cc(Nc3ccc(OC(F)(F)F)cc3)ncn2)cc1 | > 10 | – | 6.1 |
| CCN(CC)S(=O)(=O)c1ccc(-c2cc(Nc3ccc(OC(F)(F)F)cc3)ncn2)cc1 | 8.85 | – | 3.88 |
| O=S(=O)(c1ccc(-c2cc(Nc3ccc(OC(F)(F)F)cc3)ncn2)cc1)N1CCCCC1 | > 10 | – | 1.41 |
| Cc1ccc(S(=O)(=O)Nc2ccc(-c3cc(Nc4ccc(OC(F)(F)F)cc4)ncn3)cc2)cc1 | > 10 | – | > 10 |
| Cc1ccc(S(=O)(=O)Nc2ccc(-c3ncnc(Nc4ccc(OC(F)(F)F)cc4)c3C)cc2)cc1 | > 10 | – | > 10 |
| O=S(=O)(c1ccc(-c2cc(Nc3ccc(OC(F)(F)F)cc3)ncn2)cc1)N1CCOCC1 | > 10 | – | 2.63 |
| CS(=O)(=O)Nc1ccc(-c2cc(Nc3ccc(OC(F)(F)F)cc3)ncn2)cc1 | 2.21 | – | 0.6 |
| CCCC(C)S(=O)(=O)Nc1ccc(-c2cc(Nc3ccc(OC(F)(F)F)cc3)ncn2)cc1 (centres unmarked) | 3.8 | – | 1.66 |

| Compound | IC50 [1] [µM] | IC50 [2] [µM] | IC50 [3] [µM] |
| --- | --- | --- | --- |
| Cc1c(Nc2ccc(OC(F)(F)F)cc2)ncnc1-c1ccc(C(=O)NCCO)cc1 | > 10 | – | 4.67 |
| Cc1c(Nc2ccc(OC(F)(F)F)cc2)ncnc1-c1ccc(C(=O)NCCN2CCOCC2)cc1 | 3.79 | – | 0.81 |
| CC(=O)Nc1cccc(-c2ncnc(Nc3ccc(OC(F)(F)F)cc3)c2C)c1 | > 10 | – | > 10 |
| Cc1c(Nc2ccc(OC(F)(F)F)cc2)ncnc1-c1cccc(C(N)=O)c1 | > 10 | – | > 10 |
| Cc1c(Nc2ccc(OC(F)(F)F)cc2)ncnc1-c1cccc(C(=O)O)c1 | > 10 | – | > 10 |
| FC(F)(F)Oc1ccc(Nc2cc(-c3ccc(-c4ccccc4)cc3)ncn2)cc1 | > 10 | – | 3.18 |
| Cc1c(Nc2ccc(OC(F)(F)F)cc2)ncnc1-c1ccc(-c2ccccc2)cc1 | > 10 | – | > 10 |
| COc1cccc2cc(-c3cc(Nc4ccc(OC(F)(F)F)cc4)ncn3)ccc12 | > 10 | – | > 10 |
| COc1cccc2cc(-c3ncnc(Nc4ccc(OC(F)(F)F)cc4)c3C)ccc12 | > 10 | – | > 10 |
| N#CCc1cccc(-c2cc(Nc3ccc(OC(F)(F)F)cc3)ncn2)c1 | 8.82 | – | 3.39 |
| O=[N+]([O-])c1cccc(-c2cc(Nc3ccc(OC(F)(F)F)cc3)ncn2)c1 | > 10 | – | > 10 |
| COc1ccc(C(=O)Nc2ccc(-c3cc(Nc4ccc(OC(F)(F)F)cc4)ncn3)cc2)cc1 | 9.22 | – | > 10 |
| Cc1c(Nc2ccc(OC(F)(F)F)cc2)ncnc1-c1ccc(CN)cc1 | > 10 | – | > 10 |
| FC(F)(F)Oc1ccc(Nc2ncnc(NCCN3CCOCC3)c2Br)cc1 | > 10 | – | > 10 |
| NC(=O)C1CCCN(c2ncnc(Nc3ccc(OC(F)(F)F)cc3)c2Br)C1 (centres unmarked) | > 10 | – | > 10 |
| FC(F)(F)Oc1ccc(Nc2cc(-n3ccnc3NCCN3CCOCC3)ncn2)cc1 | > 10 | – | > 10 |
| FC(F)(F)Oc1ccc(Nc2cc(-n3ccnc3Nc3ccc(OC(F)(F)F)cc3)ncn2)cc1 | > 10 | – | > 10 |
| Nc1cc(C2CC2)n(-c2cc(Nc3ccc(OC(F)(F)F)cc3)ncn2)n1 | > 10 | – | > 10 |
| FC(F)(F)Oc1ccc(Nc2cc(-n3ccc4cccnc43)ncn2)cc1 | > 10 | – | > 10 |
| FC(F)(F)Oc1ccc(Nc2cc(-c3cn[nH]c3)ncn2)cc1 | > 10 | – | ~0.46 |
| CC(C)Cn1cc(-c2cc(Nc3ccc(OC(F)(F)F)cc3)ncn2)cn1 | > 10 | – | 1.55 |
| CCS(=O)(=O)n1cc(-c2cc(Nc3ccc(OC(F)(F)F)cc3)ncn2)cn1 | > 10 | – | 4.25 |
| FC(F)(F)Oc1ccc(Nc2cc(-c3cnn(Cc4ccncc4)c3)ncn2)cc1 | 7.3 | – | 4 |

| Compound | IC50 [1] [µM] | IC50 [2] [µM] | IC50 [3] [µM] |
| --- | --- | --- | --- |
| Cc1c(-c2cc(Nc3ccc(OC(F)(F)F)cc3)ncn2)cnn1-c1ccccc1 | > 10 | – | 6.23 |
| Cc1c(Nc2ccc(OC(F)(F)F)cc2)ncnc1-c1cnn(-c2ccccc2)c1C | 8.85 | – | 5.24 |
| FC(F)(F)Oc1ccc(Nc2cc(-c3cccc4[nH]ccc34)ncn2)cc1 | > 10 | – | 6.67 |
| FC(F)(F)Oc1ccc(Nc2cc(-c3c[nH]c4ccccc34)ncn2)cc1 | > 10 | – | 9.28 |
| FC(F)(F)Oc1ccc(Nc2cc(-c3ccc4[nH]ccc4c3)ncn2)cc1 | > 10 | – | 8.71 |
| O=Cc1cc(-c2cc(Nc3ccc(OC(F)(F)F)cc3)ncn2)co1 | > 10 | – | 3.83 |
| FC(F)(F)Oc1ccc(Nc2cc(-c3cccc4sccc34)ncn2)cc1 | 3.06 | – | 3.74 |
| Cc1c(Nc2ccc(OC(F)(F)F)cc2)ncnc1-c1cccc2[nH]ccc12 | > 10 | – | > 10 |
| FC(F)(F)Oc1ccc(Nc2cc(-c3cccc4c3oc3ccccc34)ncn2)cc1 | > 10 | – | 4.6 |
| FC(F)(F)Oc1ccc(Nc2cc(-c3cnn(Cc4ccccc4)c3)ncn2)cc1 | > 10 | – | 1.3 |
| FC(F)(F)Oc1ccc(Nc2cc(-c3cc(Nc4ccc(OC(F)(F)F)cc4)ncn3)ncn2)cc1 | > 10 | – | 7 |
| Cc1ccc(NC(=O)c2ccccc2)cc1Nc1nccn1-c1cc(Nc2ccc(OC(F)(F)F)cc2)ncn1 | > 10 | – | > 10 |
| Cc1ccc(NC(=O)c2ccc(CN3CCOCC3)c(C(F)(F)F)c2)cc1Nc1nccn1-c1cc(Nc2ccc(OC(F)(F)F)cc2)ncn1 | > 10 | – | 6.61 |
| FC(F)(F)Oc1ccc(Nc2cc(-c3ccnc4[nH]ccc34)ncn2)cc1 | 6.85 | – | > 10 |
| O=c1cc(-c2cc(Nc3ccc(OC(F)(F)F)cc3)ncn2)cc[nH]1 | > 10 | – | > 10 |
| Cc1nc(-c2cc(Nc3ccc(OC(F)(F)F)cc3)ncn2)cs1 | > 10 | – | > 10 |
| O=Cc1cc(-c2cc(Nc3ccc(OC(F)(F)F)cc3)ncn2)ccc1F | 4.12 | – | 5.84 |
| CN1CCN(c2cc(-c3cc(Nc4ccc(OC(F)(F)F)cc4)ncn3)ccn2)CC1 | 0.71 | – | 0.386 |
| O=C(NCCO)c1cc2c(Nc3ccc(OC(F)(F)F)cc3)ncnc2s1 [N-(2-hydroxyethyl)-4-(4-(trifluoromethoxy)phenylamino)thieno[2,3-d]pyrimidine-6-carboxamide] | > 10 | – | > 10 |
| Cc1nn(C)c(C)c1-c1cc(Nc2ccc(OC(F)(F)F)cc2)ncn1 [N-(4-(trifluoromethoxy)phenyl)-6-(1,3,5-trimethyl-1H-pyrazol-4-yl)pyrimidin-4-amine] | > 10 | – | > 10 |
| O=C(NCCN1CCOCC1)c1cc2c(Nc3ccc(OC(F)(F)F)cc3)ncnc2s1 [drawing 343] | > 10 | – | > 10 |

From patent US9670214B2, “Small molecule myristate inhibitors of Bcr-abl and methods of use” (DANA-FARBER CANCER INSTITUTE, INC., priority 2007, dated 2017)
